Assay results reported in US9777123B2, “Sulfated beta-O4 low molecular weight lignins” (VIRGINIA COMMONWEALTH UNIVERSITY, priority 2013, dated 2017).

Target: T1, SbO4L-thrombin complex (Homo sapiens, UniProt P00734)
T1 construct: purchased Haematologic Technologies, Sigma-Aldrich or Elastin Products Company (not assigned per protease)
Assay: Protamine-mediated reversal of SbO4L inhibition of thrombin
Format: biochemical
Protocol: FIG. 8. Protamine-mediated reversal of SbO4L inhibition of thrombin. Recovery of thrombin activity at varying levels of protamine following 50% inhibition by SbO4L was measured through the Spectrozyme TH hydrolysis assay at pH 7.4. Solid line represents non-linear fit of the data by a logistic function similar to equation 1 to obtain the RC50, the concentration of protamine necessary to recover 50% thrombin activity.
A major advantage of heparin therapy is its amenability to protamine-based reversal. It is also one of the reasons why fondaparinux continues to suffer because its iatrogenic bleeding is difficult to reverse rapidly. To test whether SbO4L inhibition of thrombin can be reversed, we studied the recovery of thrombin activity following successive introduction of protamine. […] The protamine-mediated recovery profile essentially mirrors the SbO4L-induced inhibition profile. More importantly, the level of recovery is quantitative at high enough protamine concentrations. Further, the recovery was instantaneous as no extended incubation was necessary to observe reversal. The concentration of protamine necessary to recover 50% thrombin activity, i.e., RC50, could be calculated using an equation similar to the logistic equation 1 used for inhibition studies and found to be ˜0.1 μg/ml, […] for SbO4L inhibition of thrombin.

## protamine
  RC50 relative to IC50 (fold higher): 5 fold
After 50% inhibition by SbO4L, pH 7.4, 37° C.
  RC50, concentration of protamine necessary to recover 50% thrombin activity: ~0.1 µg/mL
Chromogenic test systems
  thrombin activity restored: 100%
Controls without SbO4L
  effect of protamine alone on thrombin activity: did not affect the activity of thrombin
